The source of these data is article PMC4331368, “HZ08 Reverse P-Glycoprotein Mediated Multidrug Resistance In Vitro and In Vivo” (PLoS ONE, 2015).

For orientation: Papp A→B means the apparent permeability from the apical to the basolateral side of a cell layer. Broadly, the Papp B→A is the apparent permeability from the basolateral to the apical side of a cell layer. As a reminder, the IC50 is the concentration that gives 50% inhibition.

SMILES strings stand for the structures. “And” between values parts separate entries of the source, which are not always exact repeats. Equal entries are not always repeated.

In series [1] the target is T1, P-gp (Homo sapiens, UniProt P08183).
T1 construct: expressed in transfected cells; host or cells: MDCK-MDR1 cells (canine kidney cells)
T1 sequence (P08183 whole entry): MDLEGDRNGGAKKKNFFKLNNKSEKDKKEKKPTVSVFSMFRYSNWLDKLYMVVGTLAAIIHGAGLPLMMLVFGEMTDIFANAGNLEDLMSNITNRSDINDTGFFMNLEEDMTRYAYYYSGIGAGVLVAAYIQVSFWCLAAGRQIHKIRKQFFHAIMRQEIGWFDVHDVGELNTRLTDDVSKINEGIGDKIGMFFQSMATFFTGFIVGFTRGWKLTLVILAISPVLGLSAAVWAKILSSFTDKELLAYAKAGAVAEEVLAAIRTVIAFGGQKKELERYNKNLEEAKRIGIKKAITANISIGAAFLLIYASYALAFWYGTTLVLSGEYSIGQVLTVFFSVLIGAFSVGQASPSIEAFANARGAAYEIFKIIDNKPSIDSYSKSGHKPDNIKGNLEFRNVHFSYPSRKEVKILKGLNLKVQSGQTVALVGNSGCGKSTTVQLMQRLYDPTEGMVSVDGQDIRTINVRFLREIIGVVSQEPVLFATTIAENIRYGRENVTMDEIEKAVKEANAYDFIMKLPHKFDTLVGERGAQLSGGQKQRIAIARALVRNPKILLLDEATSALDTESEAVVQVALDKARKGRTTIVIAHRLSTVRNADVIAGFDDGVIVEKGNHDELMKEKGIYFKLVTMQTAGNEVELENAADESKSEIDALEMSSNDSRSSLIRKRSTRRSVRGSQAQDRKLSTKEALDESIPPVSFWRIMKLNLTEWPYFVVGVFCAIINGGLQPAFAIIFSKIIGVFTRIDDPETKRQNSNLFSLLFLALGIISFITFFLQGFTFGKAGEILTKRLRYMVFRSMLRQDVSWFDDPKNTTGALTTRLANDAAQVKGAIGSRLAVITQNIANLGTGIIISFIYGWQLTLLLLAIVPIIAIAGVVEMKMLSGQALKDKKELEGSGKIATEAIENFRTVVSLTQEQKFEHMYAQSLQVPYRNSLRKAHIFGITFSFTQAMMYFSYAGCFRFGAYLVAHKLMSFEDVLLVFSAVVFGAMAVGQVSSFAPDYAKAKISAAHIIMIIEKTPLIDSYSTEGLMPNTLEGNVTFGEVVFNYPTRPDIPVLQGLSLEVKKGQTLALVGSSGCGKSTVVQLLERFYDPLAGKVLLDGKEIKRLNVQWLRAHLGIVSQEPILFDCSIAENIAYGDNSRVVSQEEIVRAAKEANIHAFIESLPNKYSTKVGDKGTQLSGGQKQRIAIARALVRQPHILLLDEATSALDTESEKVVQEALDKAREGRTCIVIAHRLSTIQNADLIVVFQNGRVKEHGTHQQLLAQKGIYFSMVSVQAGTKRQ
Kind of series: MDCK-MDR1 monolayer transport assay. The series is classed as cell-based. Particulars: dog.
Description: MDCK-MDR1 cells could differentiate into columnar epithelium with tight junctions in three days later to form cell monolayer. […] If a drug was a P-gp substrate, its permeation from apical side (A) to basal side (B) would be inhibited and reduced, while the permeation from B to A would not be affected. When a P-gp inhibitor was added, the permeation of P-gp substrate from A to B could be increased.
MDCK-MDR1 cells were cultured in Dulbecco's MEM (DMEM) Medium supplemented with 10% fetal bovine serum (FBS) and 2 mM L-glutamine. […] The plates were incubated at 37°C with 5% CO2/95% air for 4 days and subsequently used for assays. […] Plates were incubated for 90 min in 5% CO2/95% air, 37°C CO2 incubator with slowly shaking (60 rpm). Apical and basolateral compartments were sampled at the end of the transport experiment and the tested substance concentrations in both compartments were determined by LC-MS/MS.
The apparent permeability (Papp) and efflux ratio were calculated based on the equations reported previously.[33]

The subject of series [2] is KB-WT cells. The series can be described thus: Cell cytotoxicity assay (CCK-8), KB-WT. It counts as cell-based, human. Particulars: for IC50: Homo sapiens. As to the method: (§1) Briefly, cells (2,000/well) were seeded in 96-well plate and cultured at 37°C in 5% CO2 for 24h. […] After 72 h of treatment, 15μL Cell Counting Kit-8 solution was added to each well followed by another 2 h of incubation. The absorbance at 450nm and 600nm were then measured using a SpectraMax M5 microplate reader. The curves of growth inhibition rate were fitted with GraphPad Prism 5 and the IC50 values were calculated. Each assay was conducted three times in quadruplicate

The subject of series [3] is KB-VCR cells. The series can be described thus: Cell cytotoxicity assay (CCK-8), KB-VCR. It counts as cell-based, human. Particulars: for IC50: Homo sapiens, 72 h; for IC50 / FR (fold-resistance): chemotherapeutic alone. The procedure: as §1
For series [4], the system named is KB-WT xenografts. The series can be described thus: KB-WT tumor xenograft model. Particulars: day 21, mean±SEM. It counts as in vivo, Balb/c nude mice. An excerpt: (§2) All the animal experiments were approved by the Institutional Animal Care and Use Committee at China Pharmaceutical University (Permit Number: CPU1201P) and carried out in strict accordance with the recommendations in the Guide for the Care and Use of Laboratory Animals of AAALAC international. Animals were acclimated for 5 days prior to study initiation. […] If any animal was moribund due to treatment associated toxicity or tumor over-growth (≥ 2000 mm^3) before scheduled sacrifice, it would be euthanized. At the endpoint, the animals were euthanized by using CO2 and all efforts were made to minimize suffering.
(§3) Body weight and the tumor growth were monitored twice a week. Tumor size was measured to the nearest 0.1 mm using vernier caliper and applying the formula: Tumor volume = length × width^2 × 0.5. Efficacy data was graphically represented as the mean tumor volume ± standard error of the mean (SEM). Tumors were collected for further analysis after last measurement.

Series [5] has as its system KB-VCR xenografts. Kind of series: KB-VCR tumor xenograft model. It counts as in vivo, Balb/c nude mice. Particulars: for tumor weight / mean tumor volume: day 21.
From the text: as §2, §3

Series [6] has as its target T1, P-gp. Kind of series: Calcein-AM P-gp inhibition assay in MDCK-MDR1 cells. The series is classed as cell-based. Particulars: 2μM GF120918 = 100%. The procedure: The calcein-AM assay was optimized from previous studies.[28, 29] MDCK-MDR1 cells were cultured as described above. Cells were seeded at 8,000 cells/well (100μl of culture medium) in 96-well flat clear bottom black polystyrene plates. The medium was changed 24h after seeding and the assay was performed 48 h later. On the day of study, the medium was removed and plates were washed three times with phosphate-buffered saline (PBS). Test compounds at various concentrations were added to plates in 50μl of transport buffer containing 0.5% DMSO as solvent. Plates were incubated at 37°C for 30 min. Calcein-AM was added in 50μl of PBS to yield a final concentration of 10μM.
P-gp inhibition was calculated as described previously.[29] The curves of inhibition rates were fitted with GraphPad Prism 5 and the IC50 values were calculated. Each assay was conducted three times in quadruplicate.

The target of series [7] is T2, recombinant human ABCB1 membranes (Homo sapiens, UniProt P08183).
T2 construct: purchased
T2 sequence (P08183 whole entry): as above
The series can be described thus: P-gp ATPase activity assay (Pgp-Glo, VER-stimulated). The series is classed as biochemical. An excerpt: Sodium orthovanadate (Na3VO4) was used as an ABCB1 ATPase inhibitor. […] Luminescence was initiated by ATP detection buffer.

Where [8] appears, read: KB-WT, chemotherapeutic alone, 72 h.
The mark [9] stands for this setting: 2 mg/kg modulator + VCR 2 mg/kg.
[10] abbreviates: 5 mg/kg modulator + VCR 2 mg/kg.

The molecule `CC[C@]1(O)C[C@H]2CN(CCc3c([nH]c4ccccc34)[C@@](C(=O)OC)(c3cc4c(cc3OC)N(C=O)[C@H]3[C@@](O)(C(=O)OC)[C@H](OC(C)=O)[C@]5(CC)C=CCN6CC[C@]43[C@@H]65)C2)C1` [VCR, Vincristine] yielded a Papp A→B at 90 min, 1 μM in series [1] of 0.32 ± 0.1 ×10⁻⁶ cm/s. Also, in series [1], the Papp B→A at 90 min, 1 μM was 1.99 ± 0.28 ×10⁻⁶ cm/s. Also, the half-inhibitory concentration (IC50) in series [2] was approximately 1.5 nM; in series [2] (setting [8]), 1.5 ± 0.2 nM; in series [3] it was 619 ± 158 nM. Also, the results for the mean tumor volume in series [4] (VCR 2 mg/kg weekly i.v. alone) and in series [5] (VCR 2 mg/kg weekly i.v. alone) were 1206.41±132.53 mm^3 and 2009.99±24.57 mm^3, respectively. In series [5] (VCR 2 mg/kg alone), the tumor weight was determined as 1.623 ± 0.233 g.

For `CCCCCCCCNC(=NC#N)N1CCc2cc(OC)c(OC)cc2C1Cc1ccc(OC)c(OC)c1` (stereo not shown) [HZ08], the IC50 in series [6] is ~2440 nM and 2440 nM. Also, the ATP consumed in series [7] (VER 100μM + HZ08 0.625μM) was 74.09±4.02 pmol ATP consumed/ μg P-gp / min; in series [7] (VER 100μM + HZ08 1.25μM), 73.10±1.34 pmol ATP consumed/ μg P-gp / min; in series [7] (VER 100μM + HZ08 5μM) it was 66.82±0.87 pmol ATP consumed/ μg P-gp / min; in series [7] (VER 100μM + HZ08 10μM), 63.11±1.71 pmol ATP consumed/ μg P-gp / min; in series [7] (VER 100μM + HZ08 20μM), 55.21±0.43 pmol ATP consumed/ μg P-gp / min; in series [7] (VER 100μM + HZ08 40μM), 41.25±3.00 pmol ATP consumed/ μg P-gp / min. The ATP consumed in series [7] (VER 100μM + HZ08 80μM) is given as 34.48±1.56 pmol ATP consumed/ μg P-gp / min; in series [7] (VER 100μM + HZ08 […]), 69.42±1.31 pmol ATP consumed/ μg P-gp / min. The Fold stimulation in series [7] (VER 100μM + HZ08 0.625μM) was 4.31; in series [7] (VER 100μM + HZ08 1.25μM), 4.26; in series [7] (VER 100μM + HZ08 5μM), 3.89; in series [7] (VER 100μM + HZ08 10μM), 3.67; in series [7] (VER 100μM + HZ08 20μM), 3.21; in series [7] (VER 100μM + HZ08 40μM), 2.40. Also, the Fold stimulation in series [7] (VER 100μM + HZ08 80μM) was 2.01; in series [7] (VER 100μM + HZ08 […]), 4.04. The “cytotoxicity as single agent” value is “no cytotoxicity” in series [2] (KB-WT, CCK-8, concentrations up to 20μM) and “no cytotoxicity” in series [3] (CCK-8, concentrations up to 20μM). Also, the “FR of DOX” value in series [2] (KB-WT, DOX + 5 μM modulator) was determined as 0.83; in series [2] (KB-WT, DOX + 10 μM modulator), 1.19; in series [3] (DOX + 5 μM modulator), 3.84; in series [3] (DOX + 10 μM modulator), 4.78. For the same molecule, the “FR of PTX” value in series [2] (KB-WT, PTX + 5 μM modulator) was found to be 1.97; in series [2] (KB-WT, PTX + 10 μM modulator) it was 2.68; in series [3] (PTX + 5 μM modulator), 120.06; in series [3] (PTX + 10 μM modulator), 131.04. The “FR of VCR” value in series [2] (KB-WT, VCR + 5 μM modulator) amounted to 1.65; in series [2] (KB-WT, VCR + 10 μM modulator) it was 3.67; in series [3] (VCR + 5 μM modulator), 173.46; in series [3] (VCR + 10 μM modulator), 246.35. The values for the mean tumor volume in series [4] (setting [9]), in series [4] (setting [10]) and in series [5] (setting [9]) were 1193.11±84.95 mm^3, 872.92±301.72 mm^3 and 1536.36±190.04 mm^3, respectively. For the same molecule, the tumor weight in series [4] (setting [9]) turned out to be 1.050 ± 0.080 g; in series [4] (setting [10]) it was 0.845 ± 0.183 g; in series [5] (setting [9]), 1.222 ± 0.200 g; in series [5] (setting [10]) it was 0.954 ± 0.175 g. In series [5] (5 mg/kg modulator + VCR 2 mg/kg, compared with 2 mg/kg), the “tumor inhibition (tumor volume)” value was “a higher tumor inhibition was observed”.

For the molecule `COc1ccc(CCN(C)CCCC(C#N)(c2ccc(OC)c(OC)c2)C(C)C)cc1OC` (stereo not shown) [VER, verapamil], the “FR of DOX” value in series [2] (KB-WT, DOX + 10 μM modulator) is reported as 1.27; in series [3] (DOX + 10 μM modulator) it was 3.21. The “FR of PTX” value in series [2] (KB-WT, PTX + 10 μM modulator) amounted to 2.03; in series [3] (PTX + 10 μM modulator), 20.6. The “FR of VCR” value was determined as 1.83 in series [2] (KB-WT, VCR + 10 μM modulator) and 82.74 in series [3] (VCR + 10 μM modulator).

Regarding `CC(=O)O[C@H]1C(=O)[C@@]2(C)[C@H]([C@H](OC(=O)c3ccccc3)[C@]3(O)C[C@H](OC(=O)[C@H](O)[C@@H](NC(=O)c4ccccc4)c4ccccc4)C(C)=C1C3(C)C)[C@]1(OC(C)=O)CO[C@@H]1C[C@@H]2O` [PTX, paclitaxel], the IC50 in series [2] (setting [8]) was determined as 3.7 ± 0.9 nM; in series [3], 194 ± 17.7 nM. For the same molecule, the “FR (fold-resistance)” value is 1.00 in series [2] (KB-WT, chemotherapeutic alone) and 1.00 in series [3].

`COc1cccc2c1C(=O)c1c(O)c3c(c(O)c1C2=O)C[C@@](O)(C(=O)CO)C[C@@H]3O[C@H]1C[C@H](N)[C@H](O)[C@H](C)O1` [DOX, Doxorubicin]: the 50% inhibitory concentration (IC50) was 47.3 ± 19.7 nM in series [2] (setting [8]) and 245 ± 39.8 nM in series [3]. The “FR (fold-resistance)” value is given as 1.00 in series [2] (KB-WT, chemotherapeutic alone) and 1.00 in series [3].
